# Results: PMC6927813 (Science (New York, N.Y.), 2019)
# Numbering of substitutions follows the chain as printed. Names may count otherwise.
# T1: ParBP1 (Punavirus P1, UniProt Q38420)
# T1 sequence (Q38420 1-333): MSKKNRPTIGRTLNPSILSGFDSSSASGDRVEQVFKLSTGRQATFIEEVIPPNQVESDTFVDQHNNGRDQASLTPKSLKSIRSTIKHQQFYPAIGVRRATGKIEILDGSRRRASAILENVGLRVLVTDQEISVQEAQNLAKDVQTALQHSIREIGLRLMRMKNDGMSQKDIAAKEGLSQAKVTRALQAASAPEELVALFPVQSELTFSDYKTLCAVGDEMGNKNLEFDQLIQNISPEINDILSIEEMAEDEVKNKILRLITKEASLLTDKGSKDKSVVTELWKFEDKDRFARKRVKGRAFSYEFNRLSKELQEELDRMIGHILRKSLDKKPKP
# T2: ParBBsu (full-length) (Bacillus subtilis, UniProt P26497)
# T2 sequence (P26497 1-282): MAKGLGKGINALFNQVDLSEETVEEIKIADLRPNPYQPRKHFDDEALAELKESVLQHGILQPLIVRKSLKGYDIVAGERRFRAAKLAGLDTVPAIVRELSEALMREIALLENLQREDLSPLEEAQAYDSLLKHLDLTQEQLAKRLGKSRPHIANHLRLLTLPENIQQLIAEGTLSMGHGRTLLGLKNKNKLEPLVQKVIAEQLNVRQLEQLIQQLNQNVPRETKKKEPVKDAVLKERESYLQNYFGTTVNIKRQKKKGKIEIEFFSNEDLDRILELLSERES
# T3: ParBF (Escherichia coli, UniProt P62558)
# T3 sequence (P62558 1-323): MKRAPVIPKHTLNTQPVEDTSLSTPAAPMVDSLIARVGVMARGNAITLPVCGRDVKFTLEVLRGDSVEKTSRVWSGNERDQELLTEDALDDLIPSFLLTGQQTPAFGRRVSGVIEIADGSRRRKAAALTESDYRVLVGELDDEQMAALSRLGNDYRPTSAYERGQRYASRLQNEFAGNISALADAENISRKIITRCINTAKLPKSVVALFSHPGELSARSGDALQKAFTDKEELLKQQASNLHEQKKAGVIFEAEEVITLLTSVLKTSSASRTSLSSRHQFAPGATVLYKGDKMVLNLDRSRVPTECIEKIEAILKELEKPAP
# B1: ParBBsu(T22C) (natural protein)
# chain: T2 sequence (P26497 1-282) with T22C
# B2: ParBBsu(T22C, S278C) (natural protein)
# chain: T2 sequence (P26497 1-282) with T22C, S278C
# B3: ParBBsu(21-218) (domain or fragment)
# chain: ETVEEIKIADLRPNPYQPRKHFDDEALAELKESVLQHGILQPLIVRKSLKGYDIVAGERRFRAAKLAGLDTVPAIVRELSEALMREIALLENLQREDLSPLEEAQAYDSLLKHLDLTQEQLAKRLGKSRPHIANHLRLLTLPENIQQLIAEGTLSMGHGRTLLGLKNKNKLEPLVQKVIAEQLNVRQLEQLIQQLNQN
# Assays:
# [1] = biological target: T1, ParBP1; experiment: membrane-spotting assay, radiolabelled nucleotide; assay type: binding; details: labelled compound
# [2] = biological target: T2, ParBBsu (full-length); experiment: isothermal titration calorimetry; assay type: binding
# [3] = biological target: T3, ParBF; experiment: membrane-spotting assay, radiolabelled nucleotide; assay type: binding; details: labelled compound
# [4] = biological target: the molecule itself; experiment: cross-linking
# [5] = biological target: the molecule itself; experiment: crystal structure
molecule,measurement,setting,value
Nc1ccn([C@@H]2O[C@H](COP(=O)(O)OP(=O)(O)OP(=O)(O)O)[C@@H](O)[C@H]2O)c(=O)n1 [CTP],"membrane-spotting assay, radiolabelled nucleotide",[1],plasmid-encoded ParB proteins (F plasmid ParBF and P1 prophage ParBP1)
same,Kd,[2],10 to 50 µM
same,"membrane-spotting assay, radiolabelled nucleotide",[3],CTP was also bound by plasmid-encoded ParB proteins (F plasmid ParBF
B1,binding result,[4],binds
B2,stoichiometry N,[4],2
B3,binding result,[5],binds
